Reference: article PMC4128046, “Effect of a toggle switch mutation in TM6 of the human adenosine A3 receptor on Gi protein-dependent signalling and Gi-independent receptor internalization” (British Journal of Pharmacology, 2014)
Changes are numbered by the printed parent chain.

Experiments:
Assay type in all cases: cell-based
[1] = molecular target: T1, A3 W243F-YFP (Homo sapiens, UniProt P0DMS8, W243F); assay: CRE-SPAP gene transcription assay, A3 W243F-YFP; settings: A3 W243F-YFP cells
T1 construct: Full length A3 W243F-YFP was excised and subcloned into a native pcDNA3.1 vector; expressed in transfected cells
T1 sequence (P0DMS8 1-318 W243F): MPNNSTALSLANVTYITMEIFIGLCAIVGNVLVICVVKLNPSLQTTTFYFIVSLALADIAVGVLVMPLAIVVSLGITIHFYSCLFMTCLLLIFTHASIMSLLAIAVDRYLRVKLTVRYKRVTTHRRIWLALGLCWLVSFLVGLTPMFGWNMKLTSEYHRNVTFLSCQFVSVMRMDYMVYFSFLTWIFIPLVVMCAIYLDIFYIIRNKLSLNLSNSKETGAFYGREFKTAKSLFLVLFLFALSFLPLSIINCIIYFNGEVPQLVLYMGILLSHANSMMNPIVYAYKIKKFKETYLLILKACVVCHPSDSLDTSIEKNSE
Procedure: One day before analysis, normal growth medium was removed from the cells and replaced with serum-free medium (DMEM/F12 containing 2 mM L-glutamine). Where applicable, PTx (100 ng·mL^−1) was added at this stage. On the day of the assay, the medium was removed and replaced with fresh serum-free medium containing the required concentration of the agonist, and cells were incubated for 1 h at 37°C/5% CO2. After 1 h, the required concentration of forskolin (FSK) was added, and cells were incubated for a further 5 h at 37°C/5% CO2. Following the 5 h incubation, all medium was removed from the cells, 40 μL of fresh serum-free medium was added to each well and cells incubated for a further 1 h at 37°C/5% CO2. The plates were then incubated at 65°C for 30 min, to destroy any endogenous alkaline phosphatases. Plates were cooled to room temperature and 100 μL of 5 mM 4-nitrophenyl phosphate in diethanolamine-containing buffer [10% (v v^−1) diethanolamine, 280 mM NaCl, 500 μM MgCl2, pH 9.85] was added to each well; the plates were then incubated at 37°C for 25 min. The absorbance at 405 nm was measured using a Dynex MRX plate reader (Chelmsford, MA, USA).
(§1) A basal and FSK control was included in each separate concentration-response CRE-SPAP gene transcription assay and cAMP accumulation assay to allow the responses in each cell line to be expressed as an inhibition of FSK-stimulated SPAP production.

[2] = molecular target: T2, A3-vYc/β-arrestin2-vYnL (Homo sapiens, UniProt P0DMS8); assay: BiFC of receptor with β-arrestin2 (automated imaging), A3-vYc; settings: A3-vYc/β-arrestin2-vYnL cells; for Maximal BiFC (%): percentage of 10 μM NECA in the cell line
T2 construct: cDNA encoding the full length human A3 receptor; expressed in transfected cells; host or cells: CHO-K1 stably expressing β-arrestin2-vYnL, stably co-transfected with A3-vYc
T2 sequence (P0DMS8 whole entry): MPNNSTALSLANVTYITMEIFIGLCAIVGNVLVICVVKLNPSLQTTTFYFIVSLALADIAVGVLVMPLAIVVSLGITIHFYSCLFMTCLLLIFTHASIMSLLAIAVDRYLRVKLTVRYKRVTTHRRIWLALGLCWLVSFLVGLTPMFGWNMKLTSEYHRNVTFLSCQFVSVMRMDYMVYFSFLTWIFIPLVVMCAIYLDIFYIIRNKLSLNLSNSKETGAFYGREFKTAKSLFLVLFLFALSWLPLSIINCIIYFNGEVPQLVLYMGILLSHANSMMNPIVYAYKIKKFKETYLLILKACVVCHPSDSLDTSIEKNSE
T2 sequence (P32121 whole entry partner): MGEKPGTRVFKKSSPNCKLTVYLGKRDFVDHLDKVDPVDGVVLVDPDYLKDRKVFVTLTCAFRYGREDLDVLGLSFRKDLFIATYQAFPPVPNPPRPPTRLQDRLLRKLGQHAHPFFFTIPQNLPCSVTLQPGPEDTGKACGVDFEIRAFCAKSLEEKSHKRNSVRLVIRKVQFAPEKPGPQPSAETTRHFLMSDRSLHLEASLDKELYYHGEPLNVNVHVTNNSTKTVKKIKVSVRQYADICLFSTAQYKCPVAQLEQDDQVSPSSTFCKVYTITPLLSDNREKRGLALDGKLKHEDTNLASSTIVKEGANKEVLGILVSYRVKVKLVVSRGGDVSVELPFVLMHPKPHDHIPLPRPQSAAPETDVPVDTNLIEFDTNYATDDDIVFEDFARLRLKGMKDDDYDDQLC

[3] = molecular target: T3, human A3 receptor W243F mutant fused to YFP (A3 W243F-YFP) (Homo sapiens, UniProt P0DMS8, W243F); assay: Automated imaging of receptor internalization (granularity analysis), A3 W243F-YFP; settings: A3 W243F-YFP cells
T3 construct: Full length A3 W243F-YFP was excised and subcloned into a native pcDNA3.1 vector; expressed in transfected cells
T3 sequence (P0DMS8 1-318 W243F): T1 sequence (P0DMS8 1-318 W243F)
Text: Immediately before experimentation, normal growth medium was replaced with serum-free medium. […] Medium was removed and cells were washed once in PBS. […] Images were obtained using an ImageXpress Ultra confocal plate reader (Molecular Devices, Sunnyvale, CA, USA). Four central images were obtained per well using a Plan Fluor 40x NA0.6 extra-long working distance objective. BiFC and YFP images were obtained by excitation with a 488 nm laser line with emission collected through a 525-550 nm band pass filter and H33342 images obtained by excitation with a 405 nm laser line and emission collected through a 447-460 nm band pass filter. Granularity analysis was performed on the resulting images using a granularity algorithm within MetaXpress software (Molecular Devices, Sunnyvale, CA, USA) and intensity above background was set for each individual experiment (Kilpatrick et al., [2010]). Areas of internalized receptors were identified by granularity analysis; granules were defined as having a diameter of between 7 and 15 μm and nuclei as having a diameter of between 6 and 9 μm, resulting in a measurement of the granule count per cell for each image. A basal and FSK control was included in each separate concentration-response CRE-SPAP gene transcription assay and cAMP accumulation assay to allow the responses in each cell line to be expressed as an inhibition of FSK-stimulated SPAP production. […] All data were fitted using non-linear regression in Prism 5 (GraphPad Software, San Diego, CA, USA). […] Statistical significance was determined by Student's unpaired t-test or by one-way ANOVA with Dunnett's post hoc analysis and P < 0.05 was considered statistically significant.

[4] = molecular target: T4, A3-YFP (Homo sapiens, UniProt P0DMS8); assay: ERK1/2 phosphorylation assay (AlphaScreen SureFire), A3-YFP; settings: for Emax: read-out: Maximum response (% 10 μM NECA), pERK1/2 assay
T4 construct: cDNA encoding the full length human A3 receptor; expressed in transfected cells
T4 sequence (P0DMS8 1-318): T1 sequence (P0DMS8 1-318 W243F) with F243W
Procedure: Normal growth medium was replaced with serum-free medium for at least 4 h before analysis. Levels of ERK1/2 phosphorylation were measured using the AlphaScreen SureFire p-ERK assay kit (PerkinElmer). […] Medium was removed from each well and replaced with 40 μL SureFire lysis buffer. After shaking for 5 min, a 1:80:20:120 v v^−1 dilution of AlphaScreen beads : lysate : activation buffer : reaction buffer in a 5.5 μL total volume was transferred to a white opaque 384-well proxiplate in diminished light. After 2 h of incubation in the dark at room temperature, the fluorescence signal was measured with an EnVision plate reader (PerkinElmer) using standard AlphaScreen settings.
as §1

| Compound | Maximum response (% inhibition of 10 μM FSK), CRE-SPAP assay [1] | maximum inhibition of SPAP production in response to 3 μM FSK ([1]; 5 h stimulation, 3 μM FSK) | % maximal internalization vs. 10 μM NECA at 2 h (BiFC) ([2]; 10 μM, 2 h) | Maximal BiFC (%) ([2]; 60 min) | EC50 ([2]; 60 min, read-out: pEC50 (BiFC with β-arrestin2-vYnL) (converted)) | effect of pretreatment on NECA-mediated internalization ([3]; 10 μM HEMADO 30 min before NECA 45 min) | accumulation of internalized receptor after 2 h stimulation ([3]; 10 μM agonist, 2 h) | EC50 ([4]; A3-YFP cells, 5 min stimulation, read-out: pEC50 (pERK1/2 assay) (converted)) | Emax [4] | agonist-mediated inhibition of SPAP production after PTx pre-incubation ([1]; PTx 100 ng·mL−1 overnight, 3 μM FSK) | SPAP production in the absence of FSK (Gs coupling) ([1]; no FSK, with or without PTx) | Emax ([1]; read-out: Maximum response (% inhibition of 10 μM FSK), CRE-SPAP assay) | Maximal internalization (%) ([3]; percentage of internalization with 10 μM NECA in the cell line) |
| --- | --- | --- | --- | --- | --- | --- | --- | --- | --- | --- | --- | --- | --- |
| CCCCC#Cc1nc(NC)c2ncn([C@@H]3O[C@H](CO)[C@@H](O)[C@H]3O)c2n1 [HEMADO, 2-(1-hexynyl)-N-methyladenosine] | No inhibition | no significant decrease | 84.3 ± 8.2% | 72.2 ± 7.1% | 6.46 nM | virtually abolished | no accumulation of internalized receptor could be detected | 1.91 nM | 120 ± 5.8% | – | – | – | – |
| CCNC(=O)[C@H]1O[C@@H](n2cnc3c(N)ncnc32)[C@H](O)[C@@H]1O [NECA, 5-(N-ethylcarboxamido)adenosine] | – | – | – | 100% | – | – | – | – | 100% | abolished | no increase in SPAP production | 34.8 ± 6.7% | 100% |
